Active and inactive are the calls of the source. No cut-off for these calls is given here.
Columns and labels:
Staphylococcus aureus [1] = assay: Bactericidal activity against methicillin-resistant Staphylococcus aureus clinical isolate 16 assessed as eradication of bacteria at 8 times MIC measured after 8 hrs by time-kill assay; type: functional, organism-based
Staphylococcus aureus [2] = assay: Antibacterial activity against methicillin-resistant Staphylococcus aureus clinical isolate 16 infected in female KM mouse skin abscess model assessed as reduction in number of MRSA cells at 5 mg/kg, sc measured after 24 hrs; type: functional, organism-based
Staphylococcus aureus [3] = assay: Antibacterial activity against methicillin-resistant Staphylococcus aureus clinical isolate 16 infected in female KM mouse skin abscess model assessed as log reduction in bacterial load at 5 mg/kg, sc measured after 24 hrs (reference value: 8.508 log10CFU/g); type: functional
Staphylococcus aureus [4] = assay: Antibacterial activity against methicillin-resistant Staphylococcus aureus clinical isolate 16 infected in female KM mouse skin abscess model assessed as reduction in TNF-alpha level at 5 mg/kg, sc measured after 24 hrs by ELISA method; type: functional, organism-based
Staphylococcus aureus [5] = assay: Antibacterial activity against methicillin-resistant Staphylococcus aureus clinical isolate 16 infected in female KM mouse skin abscess model assessed as reduction in IL-6 level at 5 mg/kg, sc measured after 24 hrs by ELISA method; type: functional, organism-based
Staphylococcus aureus [6] = assay: Bactericidal activity against Staphylococcus aureus ATCC 29213 assessed as eradication of bacteria at 8 times MIC measured after 8 hrs by time-kill assay; type: functional, organism-based
[7] = Toxicity in female KM mouse skin abscess model infected with methicillin-resistant Staphylococcus aureus clinical isolate 16 assessed as histological abnormalities in kidney at 5 mg/kg, sc measured after 24 hrs by H and E staining based analysis; type: organism-based; details: in vivo
[8] = Toxicity in female KM mouse skin abscess model infected with methicillin-resistant Staphylococcus aureus clinical isolate 16 assessed as effect on spleen at 5 mg/kg, sc measured after 24 hrs by H and E staining based analysis; type: organism-based; details: in vivo
[9] = Toxicity in female KM mouse skin abscess model infected with methicillin-resistant Staphylococcus aureus clinical isolate 16 assessed as effect on heart at 5 mg/kg, sc measured after 24 hrs by H and E staining based analysis; type: organism-based; details: in vivo
Staphylococcus aureus [10] = assay: Antibacterial activity against methicillin-resistant Staphylococcus aureus clinical isolate 16 infected in female KM mouse skin abscess model assessed as effect on abscess in intradermal tissue at 5 mg/kg, sc measured after 24 hrs; type: functional, organism-based
Staphylococcus aureus [11] = assay: Antibacterial activity against methicillin-resistant Staphylococcus aureus clinical isolate 16 infected in female KM mouse skin abscess model assessed as effect on abscess in back skin at 5 mg/kg, sc measured after 24 hrs; type: functional, organism-based
[12] = Toxicity in female KM mouse skin abscess model infected with methicillin-resistant Staphylococcus aureus clinical isolate 16 assessed as histological abnormalities in spleen at 5 mg/kg, sc measured after 24 hrs by H and E staining based analysis; type: organism-based; details: in vivo
[13] = Toxicity in female KM mouse skin abscess model infected with methicillin-resistant Staphylococcus aureus clinical isolate 16 assessed as histological abnormalities in liver at 5 mg/kg, sc measured after 24 hrs by H and E staining based analysis; type: organism-based; details: in vivo
[14] = Toxicity in female KM mouse skin abscess model infected with methicillin-resistant Staphylococcus aureus clinical isolate 16 assessed as effect on liver at 5 mg/kg, sc measured after 24 hrs by H and E staining based analysis; type: organism-based; details: in vivo
[15] = Toxicity in female KM mouse skin abscess model infected with methicillin-resistant Staphylococcus aureus clinical isolate 16 assessed as effect on lung at 5 mg/kg, sc measured after 24 hrs by H and E staining based analysis; type: organism-based; details: in vivo
Staphylococcus aureus [16] = assay: Antibacterial activity against methicillin-resistant Staphylococcus aureus clinical isolate 16 infected in female KM mouse skin abscess model assessed as reduction in bacterial load at 5 mg/kg, sc measured after 24 hrs relative to control; type: functional; design: scale not given: the % may be the effect or the level left
Staphylococcus aureus [17] = assay: Antibacterial activity against methicillin-resistant Staphylococcus aureus clinical isolate 16 infected in female KM mouse skin abscess model assessed as reduction in inflammatory cells at 5 mg/kg, sc measured after 24 hrs by H and E staining based analysis; type: functional, organism-based
[18] = Toxicity in female KM mouse skin abscess model infected with methicillin-resistant Staphylococcus aureus clinical isolate 16 assessed as histological abnormalities in heart at 5 mg/kg, sc measured after 24 hrs by H and E staining based analysis; type: organism-based; details: in vivo
[19] = Toxicity in female KM mouse skin abscess model infected with methicillin-resistant Staphylococcus aureus clinical isolate 16 assessed as effect on kidney at 5 mg/kg, sc measured after 24 hrs by H and E staining based analysis; type: organism-based; details: in vivo
[20] = Toxicity in female KM mouse skin abscess model infected with methicillin-resistant Staphylococcus aureus clinical isolate 16 assessed as histological abnormalities in lung at 5 mg/kg, sc measured after 24 hrs by H and E staining based analysis; type: organism-based; details: in vivo

Compound: CN[C@H](CC(C)C)C(=O)N[C@H]1C(=O)N[C@@H](CC(N)=O)C(=O)N[C@H]2C(=O)N[C@H]3C(=O)N[C@H](C(=O)N[C@H](C(=O)O)c4cc(O)cc(O)c4-c4cc3ccc4O)[C@H](O)c3ccc(c(Cl)c3)Oc3cc2cc(c3O[C@@H]2O[C@H](CO)[C@@H](O)[C@H](O)[C@H]2O[C@H]2C[C@](C)(N)[C@H](O)[C@H](C)O2)Oc2ccc(cc2Cl)[C@H]1O [VANCOMYCIN]
- Activity (Staphylococcus aureus [1]): inactive
- Activity (Staphylococcus aureus [2]): Active
- Activity (Staphylococcus aureus [3]): 1.922 log10CFU/g
- Activity (Staphylococcus aureus [4]): Active
- Activity (Staphylococcus aureus [5]): Active
- Activity (Staphylococcus aureus [6]): inactive
- Activity [7]: Non-Toxic
- Activity [8]: Non-Toxic
- Activity [9]: Non-Toxic
- Activity (Staphylococcus aureus [10]): Active
- Activity (Staphylococcus aureus [11]): Active
- Activity [12]: Non-Toxic
- Activity [13]: Non-Toxic
- Activity [14]: Non-Toxic
- Activity [15]: Non-Toxic
- Activity (Staphylococcus aureus [16]): 98.93%
- Activity (Staphylococcus aureus [17]): Active
- Activity [18]: Non-Toxic
- Activity [19]: Non-Toxic
- Activity [20]: Non-Toxic

Source: ChEMBL document CHEMBL5500372, “Novel natural osthole-inspired amphiphiles as membrane targeting antibacterials against methicillin-resistant Staphylococcus aureus (MRSA)” (Eur J Med Chem, 2024)
